From US20030100549A1, “Inhibitors of c-Jun N-terminal kinases (JNK)” (priority 1999, published 2003)

Biological target: T1, activated JNK3 (Homo sapiens, UniProt P53779)
T1 construct: One such construct encodes amino acid residues Ser40-Glu402 of JNK3α1 and is preceded by Met and Gly residues; Met-Gly (initiator Met plus Gly added for the NcoI site) (N); made in house; host or cells: E. coli BL21 (DE3)
Test: JNK3 inhibition, spectrophotometric coupled-enzyme assay
Format: biochemical
Conditions: activated JNK3 10 nM, 10 μM ATP, 200 μM EGF receptor peptide, 30° C.
From the text: A BLAST search of the EST database using the published JNK3α1 cDNA as a query identified an EST clone (#632588) that contained the entire coding sequence for human JNK3α1. Polymerase chain reactions (PCR) using pfu polymerase (Strategene) were used to introduce restriction sites into the cDNA for cloning into the pET-15B expression vector at the NcoI and BamHI sites. The protein was expressed in E. coli. Due to the poor solubility of the expressed full-length protein (Met 1-Gln 422), an N-terminally truncated protein starting at Ser residue at position 40 (Ser 40) was produced. This truncation corresponds to Ser 2 of JNK1 and JNK2 proteins, and is preceded by a methionine (initiation) and a glycine residue. The glycine residue was added in order to introduce an NcoI site for cloning into the expression vector. In addition, systematic C-terminal truncations were performed by PCR to identify a construct that give rise to diffraction-quality crystals. One such construct encodes amino acid residues Ser40-Glu402 of JNK3α1 and is preceded by Met and Gly residues.
5 mg of JNK3 was diluted to 0.5 mg/ml in 50 mM HEPES buffer, pH 7.5, containing 100 mM NaCl, 5 mM DTT, 20 mM MgCl2 and 1 mM ATP. GST-MKK7(DD) was added at a molar ratio of 1:2.5 GST-MKK7:JNK3. After incubation for 30 minutes at 25° C., the reaction mixture was concentrated 5-fold by ultrafiltration in a Centriprep-30 (Amicon, Beverly, Mass.), diluted to 10 ml and an additional 1 mM ATP added. This procedure was repeated three times to remove ADP and replenish ATP. The final addition of ATP was 5 mM and the mixture incubated overnight at 4° C.
The activated JNK3/GST-MKK7(DD) reaction mixture was exchanged into 50 mM HEPES buffer, pH 7.5, containing 5 mM DTT and 5% glycerol (w/v) by dialysis or ultrafiltration. The reaction mixture was adjusted to 1.1 M potassium phosphate, pH 7.5, and purified by hydrophobic interaction chromatography (at 25° C.) using a Rainin Hydropore column. […] Activated JNK3 (i.e. doubly phosphorylated JNK3) was stored at −70° C. at 0.25-1 mg/ml.
Compounds were assayed for the inhibition of JNK3 by a spectrophotometric coupled-enzyme assay. In this assay, a fixed concentration of activated JNK3 (10 nM) was incubated with various concentrations of a potential inhibitor dissolved in DMSO for 10 minutes at 30° C. in a buffer containing 0.1 M HEPES buffer, pH 7.5, containing 10 mM MgCl2, 2.5 mM phosphoenolpyruvate, 200 μM NADH, 150 μg/mL pyruvate kinase, 50 μg/mL lactate dehydrogenase, and 200 μM EGF receptor peptide. The EGF receptor peptide has the sequence […], and is a phosphoryl acceptor in the JNK3-catalyzed kinase reaction. The reaction was initiated by the addition of 10 μM ATP and the assay plate is inserted into the spectrophotometer's assay plate compartment that was maintained at 30° C. The decrease of absorbance at 340 nm was monitored as a function of time. The rate data as a function of inhibitor concentration was fitted to competitive inhibition kinetic model to determine the Ki.

T1 sequence (P53779 40-402): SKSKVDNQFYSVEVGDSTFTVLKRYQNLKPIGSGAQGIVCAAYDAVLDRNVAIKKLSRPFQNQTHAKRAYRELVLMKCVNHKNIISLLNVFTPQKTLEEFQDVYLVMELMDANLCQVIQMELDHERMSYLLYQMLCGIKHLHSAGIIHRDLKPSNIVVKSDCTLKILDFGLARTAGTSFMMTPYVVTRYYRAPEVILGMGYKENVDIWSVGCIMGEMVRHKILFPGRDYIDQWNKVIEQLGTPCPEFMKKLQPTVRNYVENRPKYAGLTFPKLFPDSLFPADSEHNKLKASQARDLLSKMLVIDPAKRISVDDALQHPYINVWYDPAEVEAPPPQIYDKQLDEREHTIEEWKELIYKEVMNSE

`O=C(Nc1ccccc1)c1c(Nc2ccccc2)[nH]c(=O)[nH]c1=O` [Cmpd 1] and `Cc1cccc(NC(=O)c2c(Nc3ccccc3)[nH]c(=O)[nH]c2=O)c1` [Cmpd 4] cannot be ordered by Ki: under 1000 nM for the first, at least 1000 nM for the second.

`O=C(Nc1ccccn1)c1c(Nc2ccccc2)[nH]c(=O)[nH]c1=O` [Cmpd 2, 2,4-Dioxo-6-phenylamino-1,2,3,4-tetrahydro-pyrimidine-5-carboxylic acid pyridin-2-ylamide] and `Cc1ccccc1Nc1[nH]c(=O)[nH]c(=O)c1C(=O)Nc1ccccc1` [Cmpd 5] cannot be ordered by Ki: at least 1000 nM for the first, at least 1000 nM for the second.

`O=C(Nc1ccc(F)cc1)c1c(Nc2ccccc2)[nH]c(=O)[nH]c1=O` [Cmpd 3, 2,4-dioxo-6-phenylamino-1,2,3,4-tetrahydro-pyrimidine-5-carboxylic acid (4-fluoro-phenyl)-amide] and `O=C(Nc1ccccc1)c1c(Nc2ccc(F)cc2)[nH]c(=O)[nH]c1=O` [Cmpd 8] cannot be ordered by Ki: at least 1000 nM for the first, at least 1000 nM for the second.

`Cc1ccccc1Nc1[nH]c(=O)[nH]c(=O)c1C(=O)Nc1ccc(F)cc1` [Cmpd 6] and `Cc1cccc(NC(=O)c2c(Nc3ccccc3C)[nH]c(=O)[nH]c2=O)c1` [Cmpd 7] cannot be ordered by Ki: at least 1000 nM for the first, at least 1000 nM for the second.

`O=C(Nc1ccc(F)cc1)c1c(Nc2ccc(F)cc2)[nH]c(=O)[nH]c1=O` [Cmpd 9] and `Cc1cccc(NC(=O)c2c(Nc3ccc(F)cc3)[nH]c(=O)[nH]c2=O)c1` [Cmpd 10] cannot be ordered by Ki: at least 1000 nM for the first, at least 1000 nM for the second.
